In PubChem BioAssay (NCI):
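Where inhibition never reached the appropriate level, the endpoint shown equals the highest concentration tested. Otherwise, values were interpolated linearly from a five-concentration, 48-hour dose response in 96-well plates. TGI: total growth inhibition.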

What was measured:
Assay in all cases: growth of human tumour cells (NCI), 48 h
[1] = test system: NCI-H522 lung
[2] = test system: M19-MEL melanoma
[3] = test system: A498 renal
[4] = test system: LXFL 529 NSCLC
[5] = test system: SK-MEL-28 melanoma
[6] = test system: HOP-92 NSCLC
[7] = test system: EKVX NSCLC
[8] = test system: SNB-19 CNS
[9] = test system: HL-60(TB) leukemia
[10] = test system: COLO 205 colon
[11] = test system: M14 melanoma
[12] = test system: XF 498 CNS
[13] = test system: RPMI-8226 leukemia
[14] = test system: K-562 leukemia
[15] = test system: OVCAR-5 ovarian
[16] = test system: SF-295 CNS
[17] = test system: HT29 colon
[18] = test system: UO-31 renal
[19] = test system: SK-MEL-5 melanoma
[20] = test system: NCI-H460 lung
[21] = test system: LOX IMVI melanoma
[22] = test system: 786-0 renal
[23] = test system: MOLT-4 leukemia
[24] = test system: IGROV1 ovarian
[25] = test system: RXF-631 renal
[26] = test system: DMS 273 small cell lung
[27] = test system: DMS 114 small cell lung
[28] = test system: RXF 393 renal
[29] = test system: OVCAR-3 ovarian
[30] = test system: SK-MEL-2 melanoma
[31] = test system: UACC-257 melanoma
[32] = test system: HCT-15 colon
[33] = test system: SF-539 CNS
[34] = test system: SNB-78 CNS
[35] = test system: NCI-H23 lung
[36] = test system: SK-OV-3 ovarian
[37] = test system: MALME-3M melanoma
[38] = test system: TK-10 renal
[39] = test system: SN12C renal
[40] = test system: UACC-62 melanoma
[41] = test system: CCRF-CEM leukemia
[42] = test system: U251 CNS
[43] = test system: HOP-62 NSCLC
[44] = test system: ACHN renal
[45] = test system: SNB-75 CNS
[46] = test system: SW-620 colon
[47] = test system: SF-268 CNS
[48] = test system: OVCAR-8 ovarian
[49] = test system: OVCAR-4 ovarian
[50] = test system: A549 NSCLC
[51] = test system: HCT-116 colon
[52] = test system: KM12 colon
[53] = test system: CAKI-1 renal

Measured: TGI

O=P(CN1CCOCC1)(c1ccccc1)c1ccccc1
> 100 µM: all assays above
